Data as given in PubChem BioAssay (NCI).
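Results reflect a 48-hour exposure of cells in 96-well plates to compound at five concentrations. Abbreviation: GI50, concentration required for 50% inhibition of growth. TGI denotes the concentration required for complete inhibition of growth.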

Experiments:
Experiment in all cases: NCI tumour cell line growth inhibition, 48 h
HOP-62 NSCLC = test system: HOP-62 NSCLC
IGROV1 ovarian = test system: IGROV1 ovarian
A549 NSCLC = test system: A549 NSCLC
SK-MEL-28 melanoma = test system: SK-MEL-28 melanoma
SF-295 CNS = test system: SF-295 CNS
SK-MEL-5 melanoma = test system: SK-MEL-5 melanoma
MDA-MB-435 = test system: MDA-MB-435
UACC-257 melanoma = test system: UACC-257 melanoma
OVCAR-3 ovarian = test system: OVCAR-3 ovarian
MCF7 breast = test system: MCF7 breast
UO-31 renal = test system: UO-31 renal
HCC-2998 colon = test system: HCC-2998 colon
OVCAR-4 ovarian = test system: OVCAR-4 ovarian
COLO 205 colon = test system: COLO 205 colon
RXF 393 renal = test system: RXF 393 renal
SF-268 CNS = test system: SF-268 CNS
RPMI-8226 leukemia = test system: RPMI-8226 leukemia
CCRF-CEM leukemia = test system: CCRF-CEM leukemia
ACHN renal = test system: ACHN renal
CAKI-1 renal = test system: CAKI-1 renal
HCT-15 colon = test system: HCT-15 colon
NCI/ADR-RES ovarian = test system: NCI/ADR-RES ovarian
EKVX NSCLC = test system: EKVX NSCLC
SK-OV-3 ovarian = test system: SK-OV-3 ovarian
U251 CNS = test system: U251 CNS
K-562 leukemia = test system: K-562 leukemia
HL-60(TB) leukemia = test system: HL-60(TB) leukemia

With CCCOc1nc(SCCC)nc2c1cnn2-c1ccccc1 the GI50 (HOP-62 NSCLC) was greater than 100 µM, the TGI (HOP-62 NSCLC) was greater than 100 µM and the GI50 (IGROV1 ovarian) was greater than 100 µM. For the same molecule, the TGI (IGROV1 ovarian) was greater than 100 µM, the GI50 (A549 NSCLC) was greater than 100 µM and the TGI (A549 NSCLC) was greater than 100 µM. For the same molecule, the GI50 (SK-MEL-28 melanoma) was greater than 100 µM, the TGI (SK-MEL-28 melanoma) was greater than 100 µM and the GI50 (SF-295 CNS) was 31.8 µM. The TGI (SF-295 CNS) was greater than 100 µM, the GI50 (SK-MEL-5 melanoma) was greater than 100 µM and the TGI (SK-MEL-5 melanoma) was greater than 100 µM. The GI50 (MDA-MB-435) was 53.1 µM, the TGI (MDA-MB-435) was greater than 100 µM and the GI50 (UACC-257 melanoma) was greater than 100 µM. For the same molecule, the TGI (UACC-257 melanoma) was greater than 100 µM, the GI50 (OVCAR-3 ovarian) was greater than 100 µM and the TGI (OVCAR-3 ovarian) was greater than 100 µM. For the same molecule, the GI50 (MCF7 breast) was greater than 100 µM, the TGI (MCF7 breast) was greater than 100 µM and the GI50 (UO-31 renal) was greater than 100 µM. The TGI (UO-31 renal) was greater than 100 µM, the GI50 (HCC-2998 colon) was greater than 100 µM and the TGI (HCC-2998 colon) was greater than 100 µM. It also gave a GI50 (OVCAR-4 ovarian) greater than 100 µM, a TGI (OVCAR-4 ovarian) greater than 100 µM and a GI50 (COLO 205 colon) greater than 100 µM. It also gave a TGI (COLO 205 colon) greater than 100 µM, a GI50 (RXF 393 renal) of 78.9 µM and a TGI (RXF 393 renal) greater than 100 µM. For the same molecule, the GI50 (SF-268 CNS) was greater than 100 µM, the TGI (SF-268 CNS) was greater than 100 µM and the GI50 (RPMI-8226 leukemia) was 70.9 µM. The TGI (RPMI-8226 leukemia) was greater than 100 µM, the GI50 (CCRF-CEM leukemia) was 56.7 µM and the TGI (CCRF-CEM leukemia) was greater than 100 µM. For the same molecule, the GI50 (ACHN renal) was greater than 100 µM, the TGI (ACHN renal) was greater than 100 µM and the GI50 (CAKI-1 renal) was 68.2 µM. For the same molecule, the TGI (CAKI-1 renal) was greater than 100 µM, the GI50 (HCT-15 colon) was greater than 100 µM and the TGI (HCT-15 colon) was greater than 100 µM. It also gave a GI50 (NCI/ADR-RES ovarian) greater than 100 µM, a TGI (NCI/ADR-RES ovarian) greater than 100 µM and a GI50 (EKVX NSCLC) of 39.1 µM. The TGI (EKVX NSCLC) was greater than 100 µM, the GI50 (SK-OV-3 ovarian) was greater than 100 µM and the TGI (SK-OV-3 ovarian) was greater than 100 µM. For the same molecule, the GI50 (U251 CNS) was greater than 100 µM, the TGI (U251 CNS) was greater than 100 µM and the GI50 (K-562 leukemia) was greater than 100 µM. It also gave a TGI (K-562 leukemia) greater than 100 µM and a GI50 (HL-60(TB) leukemia) of 38 µM.
